The text below walks through data of PubChem BioAssay (NCI).

Common to all, as to experiment: DTP human tumour cell line panel, 48 h
Assay [1] concerns DU-145 prostate.
In assay [2] the test system is HS 578T breast.
Assay [3] deals with MDA-MB-231 breast.
Assay [4] has as its system NCI/ADR-RES ovarian.
Assay [5] deals with DLD-1 colon.
For assay [6], the system named is KM20L2 colon.
Assay [7] relates to LXFL 529 NSCLC.
Assay [8] has as its system XF 498 CNS.
Assay [9] has as its system DMS 114 small cell lung.

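The compound was tested at five concentrations on cells cultured in 96-well plates, with a 48-hour exposure period. GI50: concentration for 50% inhibition of growth. TGI denotes the concentration required for complete inhibition of growth.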 Where a SMILES comes first, the peptide text is derived from it. [ ]: non-standard residue; d: D form. The star is where a group is joined. NMeF = CN[CH](Cc1ccccc1)C(=O)O; NMeV = CN[CH](C(=O)O)C(C)C; Boc = CC(C)(C)OC(=O)*

Consider `CCOC(=O)[C@@H](N)CCC(=O)N[C@@H](CSCc1ccccc1)C(=O)N[C@@H](C(=O)OCC)c1ccccc1`, for which the GI50 (in general, the concentration that inhibits growth by half) was 38.3 µM in assay [1], 16.6 µM in [2], 18.1 µM in [3] and above 100 µM in assay [4]. Besides, the TGI – broadly, the concentration giving total growth inhibition – in [1] was above 100 µM; in assay [2], 47.3 µM; in [3] it was 34.1 µM; in assay [4], above 100 µM.
Consider `COc1cc2nc3cc([N+](=O)[O-])ccc3c(NCCCNCCO)c2cc1OC`, for which the GI50 in [1] is 0.194 µM; in [2], 0.184 µM; in [3] it was 0.13 µM; in [4], 31.4 µM. Also, the total growth inhibition concentration (TGI) in [1] was 0.645 µM; in [2], 0.612 µM; in assay [3], 0.374 µM; in assay [4], above 100 µM.
As for `CC(C)C(Nc1c2ccccc2nc2ccccc12)C(=O)O` (centres undefined), the TGI in assay [5], in assay [6], in assay [7] and in [8] was above 100 µM each time.
With `O=C1CCN2C(=O)CCN12`, the TGI in assay [9], in assay [7] and in assay [8] was above 100 µM each time.
Consider `CC(C)(C)c1cc(Br)c(O)c(CN(Cc2cc(C(C)(C)C)cc(Br)c2O)C2CCCCC2)c1`, for which the TGI is 26.8 µM in assay [1], 28.4 µM in assay [2], 28.2 µM in assay [3] and 24.3 µM in assay [4].
For the compound `C=C1C(=O)O[C@H]2[C@H]1CC/C(COC(=O)C(=O)c1cn(Cc3ccccc3)c3ccccc13)=C\CC[C@@]1(C)O[C@@H]21`, the GI50 is 2.96 µM in assay [1], 3.35 µM in assay [2], 2.17 µM in [3] and 2.75 µM in assay [4]. In addition, the TGI in [1] worked out at 11.3 µM; in [2], 29.9 µM; in assay [3] it was 5.01 µM; in assay [4] it was 9.83 µM.
For the compound `CN1CCN(CCCOc2ccc3nc(Nc4ccc(Cl)c(C(F)(F)F)c4)ccc3c2)CC1`, the GI50 in assay [1] is 11.9 µM; in [2] it was 12.5 µM; in assay [3], 7.59 µM; in assay [4] it was 14.7 µM. For the same compound, the TGI in [1] came to 24.3 µM; in assay [2], 32.1 µM; in [3], 23.1 µM; in [4] it was 33.2 µM.
Turning to `COC(=O)[C@@H](C)CNS(=O)(=O)N(c1cc(C(F)(F)F)cc(C(F)(F)F)c1)C1CCN(Cc2ccc(F)cc2)CC1`, the GI50 in [1] was 13.4 µM; in [2], 11.3 µM; in assay [3] it was 12.7 µM; in assay [4], 10.7 µM. Also, the TGI amounted to 27.4 µM in assay [1], 27.1 µM in [2], 29.3 µM in [3] and 23.4 µM in [4].
Regarding `CC(C)C(NC(=O)OC(C)(C)C)C(=O)N(C)C(Cc1ccccc1)C(=O)N(C)C(C(=O)O)C(C)C` (stereo not drawn) (Boc-Val-[NMeF]-[NMeV]-OH; configuration not given here), the TGI in assay [9], in assay [6], in assay [7] and in assay [8] was above 100 µM throughout.
Regarding `COC(C(O)CO)C(O)C(O)C(=O)NNc1ccccc1` (centres undefined), the TGI in assay [1], in assay [2], in assay [3] and in [4] was above 100 µM throughout.
Turning to `CN1C/C=C\CCOc2cccc(c2)-c2ccnc(n2)Nc2cccc(c2)C1`, the GI50 is 0.0562 µM in assay [1], 0.0641 µM in assay [2], 0.0591 µM in [3] and 0.0654 µM in assay [4]. Also, the TGI was found to be 6 µM in assay [1], 0.82 µM in [2], 0.859 µM in [3] and 1.45 µM in [4].
As for `COC1=C(C)C(=O)c2c(c(COC(N)=O)c3n2CC2C3N2C)C1=O` (centres undefined), the TGI in assay [1] is 0.0542 µM; in [2], 0.986 µM; in [3], 0.409 µM; in assay [4], 0.336 µM.
Regarding `c1cc(CNC23CC4CC(CC(C4)C2)C3)cc(C[N+](Cc2cccc(CNC34CC5CC(CC(C5)C3)C4)c2)(Cc2cccc(CNC34CC5CC(CC(C5)C3)C4)c2)Cc2cccc(CNC34CC5CC(CC(C5)C3)C4)c2)c1` (centres undefined), the GI50 was 6.16 µM in assay [1], 8.01 µM in assay [2], 8.73 µM in assay [3] and 6.01 µM in assay [4]. Also, the concentration for total growth inhibition (TGI) turned out to be 19.3 µM in assay [1], 49.4 µM in assay [2], 31 µM in [3] and 19 µM in assay [4].
For the compound `COC(=O)C1=CNC=C(C(=O)OC)C1C1=CC(=O)C(C)=CC1=O`, the GI50 in assay [1] is 16 µM; in assay [2], 25 µM; in assay [3], 2.78 µM; in [4], 16.5 µM. Also, the TGI in assay [1] came to 30.3 µM; in assay [2], 66.5 µM; in assay [3], 19.1 µM; in assay [4] it was 31.2 µM.
Regarding `COc1nc2ccccc2cc1-c1nc2c(cnn2-c2ccc(Br)cc2)c(=O)[nH]1`, the GI50 in assay [1] was 0.0344 µM; in assay [2], 0.0282 µM; in [3], 0.133 µM; in assay [4], 0.0186 µM. Besides, the TGI in [1] is 13.8 µM; in [2] it was 4.71 µM; in assay [3], above 27.4 µM; in assay [4], 1.58 µM.
For `Nn1c(=O)n(Cc2ccccc2)n(-c2ccccc2)c1=O`, the TGI in assay [5], in [7] and in [8] was above 100 µM in each case.
Turning to `COc1ccccc1CNCCCN1C(=O)c2ccc3c4c(ccc(c24)C1=O)C(=O)N(CCCOCCCCOCCCN)C3=O`, the GI50 in [1] is 1.78 µM; in assay [2], 2.02 µM; in [3], 1.08 µM; in assay [4] it was 1.46 µM. Also, the TGI in [1] is 3.44 µM; in [2], 5.7 µM; in assay [3] it was 4.14 µM; in [4] it was 4.37 µM.
With `COC(=O)[C@H](C)NC(=O)NC(=O)NC(=O)CI`, the GI50 in assay [1] was 15.4 µM; in assay [2] it was 21.4 µM; in [3] it was 18.8 µM; in assay [4], 19.1 µM. The TGI was determined as 29.2 µM in assay [1], 54.1 µM in assay [2], 37.9 µM in [3] and 43 µM in assay [4].
